Test results: ChEMBL document CHEMBL4507270 (2021)

How the values were obtained:
[1] = target: Aurora kinase A (Homo sapiens) (UniProt O14965)
[2] = system: Phosphatidylinositol 4,5-bisphosphate 3-kinase catalytic subunit alpha isoform (Homo sapiens), P42336 [H1047L]
[3] = target: Tyrosine-protein kinase ABL2 (Homo sapiens) (UniProt P42684)
[4] = target: Tyrosine-protein kinase receptor UFO (Homo sapiens) (UniProt P30530)
[5] = target: Serine/threonine-protein kinase pim-2 (Homo sapiens) (UniProt Q9P1W9)
Chain of Serine/threonine-protein kinase pim-2 (Homo sapiens) (Q9P1W9 whole entry, looked up): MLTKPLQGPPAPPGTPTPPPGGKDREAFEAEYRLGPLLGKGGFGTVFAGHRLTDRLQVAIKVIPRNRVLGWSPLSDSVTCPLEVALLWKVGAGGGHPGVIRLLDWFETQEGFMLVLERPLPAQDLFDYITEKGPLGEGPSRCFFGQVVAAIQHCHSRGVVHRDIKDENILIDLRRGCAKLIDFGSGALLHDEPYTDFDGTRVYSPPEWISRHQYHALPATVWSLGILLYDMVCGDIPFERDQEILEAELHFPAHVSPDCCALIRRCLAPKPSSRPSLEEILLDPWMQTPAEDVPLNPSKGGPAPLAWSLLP

[6] = system: Receptor-type tyrosine-protein kinase FLT3 (Homo sapiens), P36888 [N841I]
[7] = target: Ephrin type-A receptor 4 (Homo sapiens) (UniProt P54764)
[8] = target: Mu-type opioid receptor (Homo sapiens, UniProt P35372); settings: Compound concentration 10.0 uM
[9] = target: Citron Rho-interacting kinase (Homo sapiens) (UniProt O14578)
[10] = target: G protein-coupled receptor kinase 3 (Homo sapiens) (UniProt P35626)
Chain of G protein-coupled receptor kinase 3 (Homo sapiens) (P35626 whole entry): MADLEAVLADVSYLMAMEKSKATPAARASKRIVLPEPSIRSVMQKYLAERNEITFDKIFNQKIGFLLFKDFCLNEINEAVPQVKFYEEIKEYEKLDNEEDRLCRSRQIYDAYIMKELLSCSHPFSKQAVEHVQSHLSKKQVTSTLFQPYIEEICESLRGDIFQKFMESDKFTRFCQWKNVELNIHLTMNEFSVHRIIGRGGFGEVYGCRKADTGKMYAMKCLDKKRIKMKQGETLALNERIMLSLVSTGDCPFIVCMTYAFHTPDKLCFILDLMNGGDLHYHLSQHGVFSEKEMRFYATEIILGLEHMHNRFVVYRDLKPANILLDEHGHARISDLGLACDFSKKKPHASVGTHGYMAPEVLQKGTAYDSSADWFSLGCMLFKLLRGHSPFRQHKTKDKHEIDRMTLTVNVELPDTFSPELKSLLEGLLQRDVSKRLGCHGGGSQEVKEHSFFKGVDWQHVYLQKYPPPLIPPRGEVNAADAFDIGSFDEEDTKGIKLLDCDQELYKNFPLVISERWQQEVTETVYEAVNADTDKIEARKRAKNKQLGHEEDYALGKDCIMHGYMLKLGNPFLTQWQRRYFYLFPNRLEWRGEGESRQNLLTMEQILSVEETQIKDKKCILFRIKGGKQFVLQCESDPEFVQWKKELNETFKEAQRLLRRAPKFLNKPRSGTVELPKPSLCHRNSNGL

[11] = target: 5-hydroxytryptamine receptor 2A (Homo sapiens) (UniProt P28223); settings: Compound concentration 10.0 uM
[12] = target: MAP kinase-activated protein kinase 2 (Homo sapiens) (UniProt P49137)
[13] = target: Serine/threonine-protein kinase haspin (Homo sapiens) (UniProt Q8TF76)
[14] = target: Mitogen-activated protein kinase 4 (Homo sapiens) (UniProt P31152)
Chain of Mitogen-activated protein kinase 4 (Homo sapiens) (P31152 whole entry): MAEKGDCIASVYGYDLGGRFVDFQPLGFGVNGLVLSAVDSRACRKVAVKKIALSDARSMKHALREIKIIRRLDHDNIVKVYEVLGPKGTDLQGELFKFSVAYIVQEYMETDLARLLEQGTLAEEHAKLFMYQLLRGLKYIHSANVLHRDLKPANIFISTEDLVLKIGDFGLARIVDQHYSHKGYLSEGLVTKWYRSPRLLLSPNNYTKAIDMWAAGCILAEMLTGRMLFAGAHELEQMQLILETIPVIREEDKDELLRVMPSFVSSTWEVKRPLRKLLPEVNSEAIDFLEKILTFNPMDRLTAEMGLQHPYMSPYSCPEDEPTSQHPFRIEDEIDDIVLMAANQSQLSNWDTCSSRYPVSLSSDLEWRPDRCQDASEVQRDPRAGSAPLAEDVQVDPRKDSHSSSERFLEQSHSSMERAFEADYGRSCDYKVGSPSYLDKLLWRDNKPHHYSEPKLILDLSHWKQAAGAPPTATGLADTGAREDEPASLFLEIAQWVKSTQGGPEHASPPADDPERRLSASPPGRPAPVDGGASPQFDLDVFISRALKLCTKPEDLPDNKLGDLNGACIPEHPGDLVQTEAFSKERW

[15] = target: Activated CDC42 kinase 1 (Homo sapiens) (UniProt Q07912)
[16] = target: Mitotic checkpoint serine/threonine-protein kinase BUB1 (Homo sapiens) (UniProt O43683)
[17] = target: Eukaryotic translation initiation factor 2-alpha kinase 1 (Homo sapiens) (UniProt Q9BQI3)
[18] = system: eIF-2-alpha kinase GCN2 (Homo sapiens), Q9P2K8 [S808G]
[19] = target: Serine/threonine-protein kinase Nek5 (Homo sapiens) (UniProt Q6P3R8)
[20] = target: Serine/threonine-protein kinase Sgk1 (Homo sapiens) (UniProt O00141)
[21] = target: Mitogen-activated protein kinase 10 (Homo sapiens) (UniProt P53779)
[22] = target: Sigma intracellular receptor 2 (Homo sapiens, UniProt Q5BJF2); test: GPCRScan assay: inhibition of Sigma 2; design: radioligand conc. used [nm] 5.0, parental cells HEKT
Chain of Sigma intracellular receptor 2 (Q5BJF2 whole entry): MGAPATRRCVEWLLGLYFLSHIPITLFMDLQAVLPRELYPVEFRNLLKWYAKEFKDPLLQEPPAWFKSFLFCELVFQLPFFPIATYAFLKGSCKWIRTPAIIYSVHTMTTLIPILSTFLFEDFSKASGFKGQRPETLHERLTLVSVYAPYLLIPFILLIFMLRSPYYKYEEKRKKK

[23] = target: Cyclin-dependent kinase 2 homolog (Plasmodium falciparum (isolate 3D7)) (UniProt P61075)
Chain of Cyclin-dependent kinase 2 homolog (Plasmodium falciparum (isolate 3D7)) (P61075 whole entry): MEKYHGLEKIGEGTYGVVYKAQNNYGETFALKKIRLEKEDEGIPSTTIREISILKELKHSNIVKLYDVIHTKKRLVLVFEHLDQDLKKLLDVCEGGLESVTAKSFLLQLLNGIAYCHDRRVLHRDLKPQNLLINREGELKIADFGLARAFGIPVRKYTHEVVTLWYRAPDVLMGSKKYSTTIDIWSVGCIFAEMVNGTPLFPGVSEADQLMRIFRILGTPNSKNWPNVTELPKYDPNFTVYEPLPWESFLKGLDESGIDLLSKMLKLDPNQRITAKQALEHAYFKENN

[24] = target: Activin receptor type-1-like (Homo sapiens) (UniProt P37023)
[25] = target: Serine/threonine-protein kinase WNK4 (Homo sapiens) (UniProt Q96J92)
[26] = target: Serine/threonine-protein kinase OSR1 (Homo sapiens) (UniProt O95747)
[27] = target: Atypical kinase COQ8B, mitochondrial (Homo sapiens) (UniProt Q96D53)
Chain of Atypical kinase COQ8B, mitochondrial (Homo sapiens) (Q96D53 whole entry): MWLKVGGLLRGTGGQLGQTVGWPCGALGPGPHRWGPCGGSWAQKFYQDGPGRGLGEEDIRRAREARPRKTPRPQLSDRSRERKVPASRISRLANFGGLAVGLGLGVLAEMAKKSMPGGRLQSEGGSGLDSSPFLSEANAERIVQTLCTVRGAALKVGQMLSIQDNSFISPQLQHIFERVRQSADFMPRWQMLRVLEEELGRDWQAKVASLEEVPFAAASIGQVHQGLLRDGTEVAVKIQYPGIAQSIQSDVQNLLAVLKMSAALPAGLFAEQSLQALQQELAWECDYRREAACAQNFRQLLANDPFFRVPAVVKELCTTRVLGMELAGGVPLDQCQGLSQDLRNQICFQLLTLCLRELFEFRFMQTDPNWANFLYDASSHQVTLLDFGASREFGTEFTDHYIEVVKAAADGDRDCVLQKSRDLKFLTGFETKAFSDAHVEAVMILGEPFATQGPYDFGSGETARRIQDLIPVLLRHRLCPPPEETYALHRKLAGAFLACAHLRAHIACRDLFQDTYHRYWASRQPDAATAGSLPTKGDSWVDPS

[28] = target: Calcium/calmodulin-dependent protein kinase type II subunit delta (Homo sapiens) (UniProt Q13557)
[29] = target: RAC-gamma serine/threonine-protein kinase (Homo sapiens) (UniProt Q9Y243)
Chain of RAC-gamma serine/threonine-protein kinase (Homo sapiens) (Q9Y243 whole entry): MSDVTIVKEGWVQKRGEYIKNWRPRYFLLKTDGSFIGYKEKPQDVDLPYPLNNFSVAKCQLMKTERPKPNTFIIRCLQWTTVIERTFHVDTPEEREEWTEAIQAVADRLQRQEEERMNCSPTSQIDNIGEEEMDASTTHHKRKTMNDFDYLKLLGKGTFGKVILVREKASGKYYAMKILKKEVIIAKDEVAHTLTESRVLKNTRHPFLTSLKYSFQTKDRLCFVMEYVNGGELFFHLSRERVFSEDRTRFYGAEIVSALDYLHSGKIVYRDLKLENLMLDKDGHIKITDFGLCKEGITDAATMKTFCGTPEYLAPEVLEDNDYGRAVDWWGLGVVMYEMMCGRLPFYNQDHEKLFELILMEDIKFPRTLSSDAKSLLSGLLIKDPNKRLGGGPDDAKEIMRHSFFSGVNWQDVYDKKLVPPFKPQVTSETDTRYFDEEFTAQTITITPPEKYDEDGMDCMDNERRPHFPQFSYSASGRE

[30] = target: Mitogen-activated protein kinase kinase kinase 14 (Homo sapiens) (UniProt Q99558)
[31] = target: MAP/microtubule affinity-regulating kinase 4 (Homo sapiens) (UniProt Q96L34)
[32] = target: Tyrosine-protein kinase ZAP-70 (Homo sapiens) (UniProt P43403)
[33] = target: Serine/threonine-protein kinase Nek3 (Homo sapiens) (UniProt P51956)
[34] = target: Ribosomal protein S6 kinase alpha-5 (Homo sapiens) (UniProt O75582)
[35] = target: Non-receptor tyrosine-protein kinase TNK1 (Homo sapiens) (UniProt Q13470)
Chain of Non-receptor tyrosine-protein kinase TNK1 (Homo sapiens) (Q13470 whole entry): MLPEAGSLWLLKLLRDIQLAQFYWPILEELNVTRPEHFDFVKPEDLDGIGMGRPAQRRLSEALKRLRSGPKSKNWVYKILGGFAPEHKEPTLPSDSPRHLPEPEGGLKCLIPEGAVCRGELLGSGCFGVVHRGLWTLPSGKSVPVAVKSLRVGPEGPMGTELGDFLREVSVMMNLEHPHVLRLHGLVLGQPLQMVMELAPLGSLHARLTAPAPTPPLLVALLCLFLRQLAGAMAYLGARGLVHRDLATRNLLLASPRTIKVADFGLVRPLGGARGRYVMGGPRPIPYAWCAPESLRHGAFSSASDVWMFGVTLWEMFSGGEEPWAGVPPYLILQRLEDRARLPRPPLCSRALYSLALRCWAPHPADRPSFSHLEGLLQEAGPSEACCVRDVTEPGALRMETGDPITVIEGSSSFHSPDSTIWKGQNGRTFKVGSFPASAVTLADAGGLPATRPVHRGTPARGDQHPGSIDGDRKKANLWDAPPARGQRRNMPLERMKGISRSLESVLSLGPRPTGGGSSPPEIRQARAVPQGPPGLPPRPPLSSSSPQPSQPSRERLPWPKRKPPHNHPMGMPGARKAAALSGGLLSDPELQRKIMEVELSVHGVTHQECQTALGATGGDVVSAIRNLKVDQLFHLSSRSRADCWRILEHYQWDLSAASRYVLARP

[36] = target: Mitogen-activated protein kinase 8 (Homo sapiens) (UniProt P45983)
[37] = target: Myosin light chain kinase, smooth muscle (Homo sapiens) (UniProt Q15746)
[38] = target: Uncharacterized serine/threonine-protein kinase SBK3 (Homo sapiens) (UniProt P0C264)
[39] = target: Serine/threonine-protein kinase RIO2 (Homo sapiens) (UniProt Q9BVS4)
[40] = target: Ribosomal protein S6 kinase alpha-2 (Homo sapiens) (UniProt Q15349)
[41] = target: Serine/threonine-protein kinase WNK3 (Homo sapiens) (UniProt Q9BYP7)
[42] = target: Serine/threonine-protein kinase Nek1 (Homo sapiens) (UniProt Q96PY6)
[43] = target: Dual specificity mitogen-activated protein kinase kinase 6 (Homo sapiens) (UniProt P52564)
[44] = target: Cyclin-dependent kinase 5 (Homo sapiens) (UniProt Q00535)
[45] = target: Mitogen-activated protein kinase kinase kinase 1 (Homo sapiens) (UniProt Q13233)
[46] = Compound concentration 1000.0 nM
[47] = Compound concentration 100.0 nM

Chain of Phosphatidylinositol 4,5-bisphosphate 3-kinase catalytic subunit alpha isoform (Homo sapiens), P42336 [H1047L] (P42336 whole entry H1047L, canonical isoform): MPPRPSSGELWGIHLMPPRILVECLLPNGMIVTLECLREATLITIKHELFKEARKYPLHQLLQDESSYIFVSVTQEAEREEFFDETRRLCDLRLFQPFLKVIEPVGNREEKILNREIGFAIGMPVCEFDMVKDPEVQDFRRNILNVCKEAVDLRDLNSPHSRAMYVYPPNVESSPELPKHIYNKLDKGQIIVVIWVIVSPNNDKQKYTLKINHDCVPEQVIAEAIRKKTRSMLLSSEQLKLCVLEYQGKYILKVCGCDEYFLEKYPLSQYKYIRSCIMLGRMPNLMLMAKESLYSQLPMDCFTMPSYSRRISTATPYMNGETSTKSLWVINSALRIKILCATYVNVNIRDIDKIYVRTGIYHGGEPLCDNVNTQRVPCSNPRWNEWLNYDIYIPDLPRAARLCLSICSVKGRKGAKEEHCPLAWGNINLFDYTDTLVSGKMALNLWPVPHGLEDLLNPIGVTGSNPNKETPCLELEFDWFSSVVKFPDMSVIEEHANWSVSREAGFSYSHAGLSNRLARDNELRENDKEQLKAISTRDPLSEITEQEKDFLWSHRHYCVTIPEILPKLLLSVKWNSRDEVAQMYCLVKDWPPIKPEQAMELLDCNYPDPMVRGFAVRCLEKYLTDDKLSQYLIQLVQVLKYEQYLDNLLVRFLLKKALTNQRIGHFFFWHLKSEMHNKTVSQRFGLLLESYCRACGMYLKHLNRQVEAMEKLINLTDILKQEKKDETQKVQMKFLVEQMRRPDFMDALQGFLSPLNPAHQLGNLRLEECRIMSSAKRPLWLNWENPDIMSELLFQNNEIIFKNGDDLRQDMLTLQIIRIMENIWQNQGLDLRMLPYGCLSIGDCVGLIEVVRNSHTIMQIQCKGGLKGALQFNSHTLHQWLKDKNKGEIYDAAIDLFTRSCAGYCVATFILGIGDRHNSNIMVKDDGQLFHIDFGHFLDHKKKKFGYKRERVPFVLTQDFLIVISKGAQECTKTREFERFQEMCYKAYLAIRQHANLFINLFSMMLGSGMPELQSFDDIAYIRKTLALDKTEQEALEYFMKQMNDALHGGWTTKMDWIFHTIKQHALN

Work on `Cc1cc(NC(=O)c2cccc(S(F)(F)(F)(F)F)c2)cc(-n2ccn3nc(-c4cccnc4)cc23)c1` [BAY-309] yielded a residual activity [1, 46] of 84.9%, a residual activity [2, 46] of 100% and a residual activity [3, 46] of 100%. The residual activity [4, 46] was 100%, the residual activity [5, 46] was 100% and the residual activity [6, 46] was 100%. The residual activity [7, 46] was 76%, the inhibition [8] was 60% and the residual activity [9, 46] was 60.7%. The residual activity [10, 46] was 74.8%, the inhibition [11] was 21.9% and the residual activity [12, 46] was 100%. The residual activity [13, 46] was 70.9%, the residual activity [14, 46] was 50.4% and the residual activity [15, 46] was 100%. The residual activity [16, 46] was 100%, the residual activity [17, 46] was 100% and the residual activity [18, 46] was 100%. It also gave a residual activity [19, 46] of 86.8%, a residual activity [20, 46] of 81.3% and a residual activity [21, 46] of 64.9%. For the same molecule, the Ki ([22]; read-out: Ki) was 0.796 µM, the Ki ([22]; read-out: pKi (converted)) was 0.789 µM and the residual activity [23, 46] was 71.8%. It also gave a residual activity [24, 46] of 100%, a residual activity [25, 46] of 100% and a residual activity [26, 46] of 100%. The residual activity [27, 46] was 100%, the residual activity [28, 46] was 80% and the residual activity [29, 46] was 100%. The residual activity [30, 46] was 73.8%, the residual activity [31, 46] was 84.8% and the residual activity [32, 46] was 100%. For the same molecule, the residual activity [33, 46] was 50.5%, the residual activity [34, 46] was 100% and the residual activity [35, 46] was 95%. The residual activity [36, 46] was 55.9%, the residual activity [37, 46] was 91.8% and the residual activity [38, 46] was 100%. The residual activity [39, 46] was 49.7%, the residual activity [40, 46] was 84% and the residual activity [41, 46] was 100%. For the same molecule, the residual activity [42, 46] was 100%, the residual activity [43, 46] was 100% and the residual activity [44, 46] was 100%. The residual activity [45, 46] was 90%.
In the case of `Cc1cc(C)c(-n2ccn3nc(-c4cccnc4)cc23)cc1NC(=O)c1cc(C#N)cc(S(F)(F)(F)(F)F)c1` [BAY-826], the residual activity [1, 47] is reported as 75.9%, the residual activity [2, 47] is reported as 82.7% and the residual activity [3, 47] is reported as 67.8%. The residual activity [4, 47] was 80.5%, the residual activity [5, 47] was 100% and the residual activity [6, 47] was 95.3%. It also gave a residual activity [7, 47] of 100%, an inhibition [8] of 20.7% and a residual activity [9, 47] of 69.9%. For the same molecule, the residual activity [10, 47] was 90.6%, the inhibition [11] was -4.7% and the residual activity [12, 47] was 100%. The residual activity [13, 47] was 64%, the residual activity [14, 47] was 86.3% and the residual activity [15, 47] was 83.6%. For the same molecule, the residual activity [16, 47] was 99.8%, the residual activity [17, 47] was 100% and the residual activity [18, 47] was 100%. The residual activity [19, 47] was 87.8%, the residual activity [20, 47] was 100% and the residual activity [21, 47] was 100%. It also gave a Ki ([22]; read-out: Ki) of 0.984 µM, a Ki ([22]; read-out: pKi (converted)) of 0.955 µM and a residual activity [23, 47] of 90.9%. For the same molecule, the residual activity [24, 47] was 78.9%, the residual activity [25, 47] was 100% and the residual activity [26, 47] was 87%. For the same molecule, the residual activity [27, 47] was 93.2%, the residual activity [28, 47] was 89.1% and the residual activity [29, 47] was 95.6%. It also gave a residual activity [30, 47] of 100%, a residual activity [31, 47] of 92.4% and a residual activity [32, 47] of 79.9%. It also gave a residual activity [33, 47] of 70.7%, a residual activity [34, 47] of 100% and a residual activity [35, 47] of 87.6%. The residual activity [36, 47] was 76.8%, the residual activity [37, 47] was 57.7% and the residual activity [38, 47] was 100%. For the same molecule, the residual activity [39, 47] was 74.2%, the residual activity [40, 47] was 90.9% and the residual activity [41, 47] was 61.9%. For the same molecule, the residual activity [42, 47] was 100%, the residual activity [43, 47] was 100% and the residual activity [44, 47] was 95.6%. The residual activity [45, 47] was 78.3%.
